The values below come from US20100031452A1, “AZO DYES” (Universite Catholique de Louvain, priority 2008, published 2010).

Series [1] has as its system human intestinal cells (Caco-2). The series is described as follows: Caco-2 cytotoxicity test. To be noted: for Caco-2 cytotoxicity test (IC50 in g L^−1): Caco-2 human intestinal cells. It is filed as cell-based. On the procedure:
(§1) Toxicity was assessed on human intestinal cells (Caco-2), bacterial cells (Lumistox assays) and fish eggs cells. Mutagenicity was assessed through classical Ames test.
(§2) The toxicity of compound 4 has been measured on Caco-2 human cells as previously described, and compared with the toxicity of compound 1.

Series [2] is described as follows: Ames test: mutagenicity. Type of series: cell-based. To be noted: classical Ames test. How it is done:
as §1

Series [3] has as its system fish eggs cells. Nature of the series: Fish egg test. The following applies: for Fish egg test (IC50 in mg L^−1): in vivo. Type of series: in vivo. On the procedure: as §1
For series [4], the system named is bacterial cells (Lumistox assays). Nature of the series: Lumistox test (luminescence inhibition). It is filed as cell-based. How it is done: as §1
Series [5] can be described thus: Caco-2 cytotoxicity test. It is filed as cell-based, human. To be noted: Caco-2 cells; Caco-2 human intestinal cells; read-out: Caco-2 cytotoxicity test (IC50 in g L^−1). How it is done:
as §1, §2

The conditions of series [6]: classical Ames test; published data; cited from earlier work. In general terms: The Ames test detects mutagens through reverse mutation in bacteria.

Converted amounts (≈) assume the structure as drawn. Where two headings read alike, the source gives them in different places. Marks after values point to notes of the source that are not given here.

With `Nc1ccc2cc(S(=O)(=O)[O-])cc(O)c2c1N=Nc1ccc(Cl)cc1C(F)(F)F.[Na+]` [Acid Red 299], in series [1], the “Caco-2 cytotoxicity test (IC50 in g L^−1)” value (“Caco-2 cytotoxicity test” below) was above 1000 µg/mL. Moreover, in series [2], the “Ames test: mutagenicity” value is on record as “Positive”. For the same molecule, in series [3], the “Fish egg test (IC50 in mg L^−1)” value lay in the range of 250 to 500 µg/mL. The “Lumistox test % of luminescence inhibition at maximal OD” value in series [4] (at maximal OD) is 50.2%.
One may read the IC50 as the concentration at which inhibition is half-maximal. Take `Nc1c(S(=O)(=O)O)cc(/N=N/c2c(S(=O)(=O)O)cc(NC3CCCCC3)c3c2C(=O)c2ccccc2C3=O)c2c1C(=O)c1ccccc1C2=O` [Compound 1, 1-[(4-amino-9,10-dioxo-3-sulfo-9,10-dihydroanthracen-1-yl)diazenyl]-4-cyclohexylamino-9,10-dioxo-9,10-dihydroanthracene-2-sulfonic acid]: the IC50 in series [5] is above 1000 µg/mL; in series [3] (read-out: Fish egg test (IC50 in mg L^−1)) it was 294 µg/mL (≈ 411 µM). Moreover, in series [1] (in the range tested, with regards to other molecules available on the market), the “toxicity (in words)” value is on record as “low toxicity”. Besides, the “Ames test: mutagenicity” value in series [2] was “Negative”. In series [4] (up to a maximal optical density (OD) of 1800), the “Lumistox test % of luminescence inhibition at maximal OD” value was 41.6** %.
In the case of `O=C1c2ccccc2C(=O)c2c(/N=N\c3cccc(S(=O)(=O)O)c3)c(S(=O)(=O)O)cc(NC3CCCCC3)c21` [Compound 4, 4-Cyclohexylamino-9,10-dioxo-1-(3-sulfo-phenylazo)-9,10-dihydro-anthracene-2-sulfonic acid], the “toxicity less than the toxicity of compound 1” value in series [1] (Caco-2 human cells, FIG. 3, relative to compound 1) was found to be 30%.
`Nc1c(N=Nc2ccc(-c3ccc(N=Nc4cc(S(=O)(=O)[O-])c5ccccc5c4N)cc3)cc2)cc(S(=O)(=O)[O-])c2ccccc12.[Na+].[Na+]` [Direct Red 28]: in series [1], the “Caco-2 cytotoxicity test” value was 300 ± 20 µg/mL. For the same molecule, the “Fish egg test (IC50 in mg L^−1)” value in series [3] was below 30 µg/mL. For the same molecule, in series [4] (at maximal OD), the “Lumistox test % of luminescence inhibition at maximal OD” value is recorded as 3.4%. Further, in series [6], the “Ames test: mutagenicity” value was “Positive*”.
Take `CCN(CCO)c1ccc(N=Nc2ccc([N+](=O)[O-])cc2)cc1` [Disperse Red 1]: the “Caco-2 cytotoxicity test” value in series [1] is above 1000 µg/mL. The “Ames test: mutagenicity” value in series [2] is given as “Negative”. The “Fish egg test (IC50 in mg L^−1)” value in series [3] is 250 to 500 µg/mL. The “Lumistox test % of luminescence inhibition at maximal OD” value in series [4] (saturated solution) was 61.3*** %.
For `O=C(Nc1cc(S(=O)(=O)[O-])cc2cc(S(=O)(=O)[O-])c(N=Nc3cc(Nc4nc(Cl)nc(Nc5ccc(S(=O)(=O)[O-])cc5)n4)ccc3S(=O)(=O)[O-])c(O)c12)c1ccccc1.[Na+].[Na+].[Na+].[Na+]` [Reactive Red 4], the “Caco-2 cytotoxicity test” value in series [1] came to 700 ± 60 µg/mL. For the same molecule, the “Ames test: mutagenicity” value in series [2] is recorded as “Negative”. Besides, the “Fish egg test (IC50 in mg L^−1)” value in series [3] lay in the range of 500 to 1000 µg/mL. Also, the “Lumistox test % of luminescence inhibition at maximal OD” value in series [4] (at maximal OD) is reported as 25.9%.
